Data as given in patent publication US8604218B2, “Cytoskeletal active rho kinase inhibitor compounds, composition and use” (Inspire Pharmaceuticals, Inc., priority 2006, dated 2013).

These compounds were tested against ROCK2 (Homo sapiens (Human), UniProt O75116) (assay: Rho Kinase Inhibition Assay (IMAP fluorescence polarization)). Conditions: isolated enzyme, 10 μM ATP, 60 minutes at room temperature.
Format: biochemical

Sequence of ROCK2 (O75116 11-552): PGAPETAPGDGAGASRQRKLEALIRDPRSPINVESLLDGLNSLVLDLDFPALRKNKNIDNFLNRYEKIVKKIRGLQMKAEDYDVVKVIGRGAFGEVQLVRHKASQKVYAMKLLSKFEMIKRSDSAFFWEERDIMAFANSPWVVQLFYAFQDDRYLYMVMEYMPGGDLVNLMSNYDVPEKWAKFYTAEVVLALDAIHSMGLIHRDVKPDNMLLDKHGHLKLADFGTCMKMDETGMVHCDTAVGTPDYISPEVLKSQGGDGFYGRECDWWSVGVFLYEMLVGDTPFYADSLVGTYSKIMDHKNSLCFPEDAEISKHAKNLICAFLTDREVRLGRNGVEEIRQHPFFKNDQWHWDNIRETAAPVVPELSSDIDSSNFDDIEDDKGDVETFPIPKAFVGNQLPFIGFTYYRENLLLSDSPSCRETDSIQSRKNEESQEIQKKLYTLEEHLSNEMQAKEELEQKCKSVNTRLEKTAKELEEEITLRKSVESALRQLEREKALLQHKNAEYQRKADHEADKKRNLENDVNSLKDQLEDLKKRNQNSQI

Compound	IC50 [µM]
N#Cc1cccc(CN2CCCC(Nc3ccc4[nH]ncc4c3)C2)c1 (stereo not shown) [Compound 1.002, 3-((3-(1H-indazol-5-ylamino)piperidin-1-yl)methyl)benzonitrile]	1.23
N#Cc1cccc(CN2CCC(Nc3ccc4[nH]ncc4c3)C2)c1 (stereo not shown) [Compound 1.005, 3-((3-(1H-indazol-5-ylamino)pyrrolidin-1-yl)methyl)benzonitrile]	2.29
CC(=O)Nc1ccc(CN2CCC(Nc3ccc4[nH]ncc4c3)C2)cc1 (stereo not shown) [Compound 1.006, N-(4-((3-(1H-indazol-5-ylamino)pyrrolidin-1-yl)methyl)phenyl)acetamide]	2.75
CS(=O)(=O)c1ccc(CN2CCCC(Nc3cccc4cnccc34)C2)cc1 (stereo not shown) [Compound 2.002, N-(1-(4-(methylsulfonyl)benzyl)piperidin-3-yl)isoquinolin-5-amine]	2.58
c1ccc(CN2CCC(Nc3cccc4cnccc34)C2)cc1 (stereo not shown) [Compound 2.006, N-(1-benzylpyrrolidin-3-yl)isoquinolin-5-amine]	0.0739
N#Cc1cccc(CN2CCC(Nc3cccc4cnccc34)C2)c1 (stereo not shown) [Compound 2.007, 3-((3-(isoquinolin-5-ylamino)pyrrolidin-1-yl)methyl)benzonitrile]	3.62
CC(=O)Nc1ccc(CN2CCC(Nc3cccc4cnccc34)C2)cc1 (stereo not shown) [Compound 2.008, N-(4-((3-(isoquinolin-5-ylamino)pyrrolidin-1-yl)methyl)phenyl)acetamide]	3.65
CSc1ccc(CN2CCCC(Nc3cccc4cnccc34)C2)cc1 (stereo not shown) [Compound 2.009, N-(1-(4-(methylthio)benzyl)piperidin-3-yl)isoquinolin-5-amine]	0.368
c1cc(NC2CCCN(Cc3ccc(C4CC4)cc3)C2)c2ccncc2c1 (stereo not shown) [Compound 2.010, N-(1-(4-cyclopropylbenzyl)piperidin-3-yl)isoquinolin-5-amine]	1.24
c1cc(CN2CCCC(Nc3cccc4cnccc34)C2)cc(C2CC2)c1 (stereo not shown) [Compound 2.011, N-(1-(3-cyclopropylbenzyl)piperidin-3-yl)isoquinolin-5-amine]	4.09
c1cc(NC2CCCN(Cc3ccc(SC4CC4)cc3)C2)c2ccncc2c1 (stereo not shown) [Compound 2.012, N-(1-(4-(cyclopropylthio)benzyl)piperidin-3-yl)isoquinolin-5-amine]	14.9
c1ccc(CN2CCCC(Nc3cccc4cnccc34)CC2)cc1 (stereo not shown) [Compound 2.013, N-(1-benzylazepan-4-yl)isoquinolin-5-amine]	1.49
Clc1ccc(CN2CCCC(Nc3cccc4cnccc34)C2)cc1Cl (stereo not shown) [Compound 2.014, N-(1-(3,4-dichlorobenzyl)piperidin-3-yl)isoquinolin-5-amine]	1.67
FC(F)(F)c1cccc(CN2CCCC(Nc3cccc4cnccc34)C2)c1 (stereo not shown) [Compound 2.015, N-(1-(3-(trifluoromethyl)benzyl)piperidin-3-yl)isoquinolin-5-amine]	4.19
Clc1ccc(CN2CCC(Nc3cccc4cnccc34)C2)cc1Cl (stereo not shown) [Compound 2.016, N-(1-(3,4-dichlorobenzyl)pyrrolidin-3-yl)isoquinolin-5-amine]	0.716
COc1ccc(CN2CCC(Nc3cccc4cnccc34)C2)cc1 (stereo not shown) [Compound 2.017, N-(1-(4-methoxybenzyl)pyrrolidin-3-yl)isoquinolin-5-amine]	0.322
FC(F)(F)c1cccc(CN2CCC(Nc3cccc4cnccc34)C2)c1 (stereo not shown) [Compound 2.018, N-(1-(3-(trifluoromethyl)benzyl)pyrrolidin-3-yl)isoquinolin-5-amine]	0.632
c1cc(N[C@H]2CCN(Cc3ccc(C4CC4)cc3)C2)c2ccncc2c1 [Compound 2.019, (S)-N-(1-(4-cyclopropylbenzyl)pyrrolidin-3-yl)isoquinolin-5-amine]	4.08
c1cc(CN2CC[C@@H](Nc3cccc4cnccc34)C2)cc(C2CC2)c1 [Compound 2.020, (R)-N-(1-(3-cyclopropylbenzyl)pyrrolidin-3-yl)isoquinolin-5-amine]	0.82
c1cc(N[C@@H]2CCN(Cc3ccc(SC4CC4)cc3)C2)c2ccncc2c1 [Compound 2.021, (R)-N-(1-(4-(cyclopropylthio)benzyl)pyrrolidin-3-yl)isoquinolin-5-amine]	1.9
c1cc(N[C@@H]2CCN(Cc3ccc(C4CC4)cc3)C2)c2ccncc2c1 [Compound 2.022, (R)-N-(1-(4-cyclopropylbenzyl)pyrrolidin-3-yl)isoquinolin-5-amine]	0.311
c1cc(CN2CC[C@H](Nc3cccc4cnccc34)C2)cc(C2CC2)c1 [Compound 2.023, (S)-N-(1-(3-cyclopropylbenzyl)pyrrolidin-3-yl)isoquinolin-5-amine]	15.7
c1cc(N[C@H]2CCN(Cc3ccc(SC4CC4)cc3)C2)c2ccncc2c1 [Compound 2.024, (S)-N-(1-(4-(cyclopropylthio)benzyl)pyrrolidin-3-yl)isoquinolin-5-amine]	8.92
Cc1ccc(CN2CC[C@@H](Nc3cccc4cnccc34)C2)cc1 [Compound 2.025, (R)-N-(1-(4-methylbenzyl)pyrrolidin-3-yl)isoquinolin-5-amine]	0.0299
CSc1ccc(CN2CC[C@H](Nc3cccc4cnccc34)C2)cc1 [Compound 2.029, (S)-N-(1-(4-(methylthio)benzyl)pyrrolidin-3-yl)isoquinolin-5-amine]	3.14

Now from value to compound:

IC50 [µM]	Compound
0.12	Clc1ccc(CN2CC[C@@H](Nc3cccc4cnccc34)C2)cc1 [Compound 2.027, (R)-N-(1-(4-chlorobenzyl)pyrrolidin-3-yl)isoquinolin-5-amine]
0.789	Cc1ccc(CN2CC[C@H](Nc3cccc4cnccc34)C2)cc1 [Compound 2.028, (S)-N-(1-(4-methylbenzyl)pyrrolidin-3-yl)isoquinolin-5-amine]
2.46	Clc1ccc(CN2CC[C@H](Nc3cccc4cnccc34)C2)cc1 [Compound 2.030, (S)-N-(1-(4-chlorobenzyl)pyrrolidin-3-yl)isoquinolin-5-amine]
0.0871	C#Cc1ccc(CN2CC[C@@H](Nc3cccc4cnccc34)C2)cc1 [Compound 2.031, (R)-N-(1-(4-ethynylbenzyl)pyrrolidin-3-yl)isoquinolin-5-amine]
5.33	OCCOc1cccc(CN2CC[C@H](Nc3cccc4cnccc34)C2)c1 [Compound 2.032, (S)-2-(3-((3-(isoquinolin-5-ylamino)pyrrolidin-1-yl)methyl)phenoxy)ethanol]
3.06	CS(=O)(=O)Nc1cccc(CN2CCC[C@@H](Nc3cccc4cnccc34)C2)c1 [Compound 2.033, (R)-N-(3-((3-(isoquinolin-5-ylamino)piperidin-1-yl)methyl)phenyl)methanesulfonamide]
4.01	OCCOc1cccc(CN2CCC[C@@H](Nc3cccc4cnccc34)C2)c1 [Compound 2.034, (R)-2-(3-((3-(isoquinolin-5-ylamino)piperidin-1-yl)methyl)phenoxy)ethanol]
3.24	CS(=O)(=O)Nc1cccc(CN2CC[C@H](Nc3cccc4cnccc34)C2)c1 [Compound 2.035, (S)-N-(3-((3-(isoquinolin-5-ylamino)pyrrolidin-1-yl)methyl)phenyl)methanesulfonamide]
0.16	OCCOc1cccc(CN2CCC[C@H](Nc3cccc4cnccc34)C2)c1 [Compound 2.036, (S)-2-(3-((3-(isoquinolin-5-ylamino)piperidin-1-yl)methyl)phenoxy)ethanol]
3.06	CS(=O)(=O)Nc1cccc(CN2CCC[C@H](Nc3cccc4cnccc34)C2)c1 [Compound 2.037, (S)-N-(3-((3-(isoquinolin-5-ylamino)piperidin-1-yl)methyl)phenyl)methanesulfonamide]
0.112	CS(=O)(=O)Nc1cccc(CN2CC[C@@H](Nc3cccc4cnccc34)C2)c1 [Compound 2.038, (R)-N-(3-((3-(isoquinolin-5-ylamino)pyrrolidin-1-yl)methyl)phenyl)methanesulfonamide]
0.101	OCCOc1cccc(CN2CC[C@@H](Nc3cccc4cnccc34)C2)c1 [Compound 2.039, (R)-2-(3-((3-(isoquinolin-5-ylamino)pyrrolidin-1-yl)methyl)phenoxy)ethanol]
0.273	NC(=O)COc1cccc(CN2CC[C@@H](Nc3cccc4cnccc34)C2)c1 [Compound 2.040, (R)-2-(3-((3-(isoquinolin-5-ylamino)pyrrolidin-1-yl)methyl)phenoxy)acetamide]
0.168	CCS(=O)(=O)Nc1cccc(CN2CC[C@@H](Nc3cccc4cnccc34)C2)c1 [Compound 2.041, (R)-N-(3-((3-(isoquinolin-5-ylamino)pyrrolidin-1-yl)methyl)phenyl)ethanesulfonamide]
0.383	O=C(COc1cccc(CN2CC[C@@H](Nc3cccc4cnccc34)C2)c1)N1CCOCC1 [Compound 2.043, (R)-2-(3-((3-(isoquinolin-5-ylamino)pyrrolidin-1-yl)methyl)phenoxy)-1-morpholinoethanone]
0.433	O=C(O)COc1cccc(CN2CC[C@@H](Nc3cccc4cnccc34)C2)c1 [Compound 2.044, (R)-2-(3-((3-(isoquinolin-5-ylamino)pyrrolidin-1-yl)methyl)phenoxy)acetic acid]

These compounds were tested on NIH/3T3 cells (assay: NIH/3T3 Cell Morphology Assay (actin disruption)). Conditions: 1 μM test compound, 60 minutes at 37° C.; score of actin cytoskeleton disruption from 0 (no effect) to 4 (complete disruption), average of at least 2 determinations.
Format: cell-based
Protocol: NIH/3T3 cells were grown in DMEM-H containing glutamine and 10% Colorado Calf Serum. Cells were passaged regularly prior to reaching confluence. Eighteen to 24 hours prior to experimentation, the cells were plated onto Poly-L-Lysine-coated glass bottom 24-well plates. On the day of experimentation, the cell culture medium was removed and was replaced with the same medium containing from 10 nM to 25 μM of the test compound, and the cells were incubated for 60 minutes at 37° C. The culture medium was then removed and the cells were washed with warmed PBS and fixed for 10 minutes with warmed 4% paraformaldehyde. The cells were permeabilized with 0.5% Triton-X, stained with TRITC-conjugated phalloidin and imaged using a Nikon Eclipse E600 epifluorescent microscope to determine the degree of actin disruption. Results were expressed as a numerical score indicating the observed degree of disruption of the actin cytoskeleton at the test concentration, ranging from 0 (no effect) to 4 (complete disruption), and were the average of at least 2 determinations.
All compounds tested show measurable activity in the cell morphology assay, with most of the compounds providing substantial effects on the actin cytoskeleton at the testing concentration (score of 2 at 1 μM). […] These morphology changes are thought to provide the basis for the beneficial pharmacological effects sought in the setting of the disease processes described in this application, specifically the lowering of elevated IOP in hypertensive eyes via increased outflow through the trabecular meshwork.

Compound	Cell score at 1 μM
N#Cc1cccc(CN2CCCC(Nc3ccc4[nH]ncc4c3)C2)c1 (stereo not shown) [Compound 1.002, 3-((3-(1H-indazol-5-ylamino)piperidin-1-yl)methyl)benzonitrile]	1.4
N#Cc1cccc(CN2CCC(Nc3ccc4[nH]ncc4c3)C2)c1 (stereo not shown) [Compound 1.005, 3-((3-(1H-indazol-5-ylamino)pyrrolidin-1-yl)methyl)benzonitrile]	1.3
CC(=O)Nc1ccc(CN2CCC(Nc3ccc4[nH]ncc4c3)C2)cc1 (stereo not shown) [Compound 1.006, N-(4-((3-(1H-indazol-5-ylamino)pyrrolidin-1-yl)methyl)phenyl)acetamide]	2
CS(=O)(=O)c1ccc(CN2CCCC(Nc3cccc4cnccc34)C2)cc1 (stereo not shown) [Compound 2.002, N-(1-(4-(methylsulfonyl)benzyl)piperidin-3-yl)isoquinolin-5-amine]	1.8
CC(=O)Nc1ccc(CN2CCC(Nc3cccc4cnccc34)C2)cc1 (stereo not shown) [Compound 2.008, N-(4-((3-(isoquinolin-5-ylamino)pyrrolidin-1-yl)methyl)phenyl)acetamide]	1
